From US20170232083A1, “METHODS OF DIAGNOSIS AND TREATMENT OF CELIAC DISEASE IN CHILDREN” (priority 2014, published 2017)

Columns and labels:
[1] = system: PBMC (polyclonal gluten-specific T cells) of paediatric and adult CD patients; settings: corresponding adult data shown for comparison (14); cited from earlier work
[2] = system: PBMC (polyclonal gluten-specific T cells) of paediatric and adult CD patients; test: IFN-γ ELISpot of PBMC after 3 day oral wheat challenge (SFU, % of maximal peptide response, dominance scores, EC50; Examples 5-6); format: cell-based, human; settings: for Dominance score 3-5yrs (n = 9): CD children 3-5yrs, n = 9, following wheat challenge; for Dominance score 3-5yrs (n = 9) / Dominance score 6-10yrs (n = 10) / Dominance score 11-18yrs (n = 11): mean percentage of maximal peptide response; for Dominance score 6-10yrs (n = 10): CD children 6-10yrs, n = 10, following wheat challenge; for Dominance score 11-18yrs (n = 11): CD children 11-18yrs, n = 11, following wheat challenge; for Dominance score Mean all ages: CD children, following wheat challenge (Table 9); for Dominance scores 3-5 yrs: children with celiac disease 3-5 yrs after wheat challenge (Table 14); for Dominance scores 6-10 yrs: children with celiac disease 6-10 yrs after wheat challenge (Table 14); for Dominance scores 11-18 yrs: children with celiac disease 11-18 yrs after wheat challenge (Table 14); for Dominance scores Mean all ages: mean of all subjects (Table 14); for IFN-γ ELISpot response: after oral wheat challenge
[3] = system: PBMC from newly diagnosed / untreated CD children; settings: Liu et al.; cited from earlier work

Substance: W26 (PFPLQPEQPFPQP) [Peptide W26]
- Dominance scores 18+ yrs [1]: 0
- Dominance score 3-5yrs (n = 9) [2]: 39.4
- Dominance score 6-10yrs (n = 10) [2]: 61.6
- Dominance score 11-18yrs (n = 11) [2]: 35.0
- Dominance score Mean all ages [2]: 45.8
- Dominance scores 3-5 yrs [2]: 46
- Dominance scores 6-10 yrs [2]: 62
- Dominance scores 11-18 yrs [2]: 35
- Dominance scores Mean all ages [2]: 47

Substance: W16 (FPQPEQEFPQPQQ) [Peptide W16]
- Dominance scores 18+ yrs [1]: 0
- Dominance score 3-5yrs (n = 9) [2]: 19.8
- Dominance score 6-10yrs (n = 10) [2]: 47.3
- Dominance score 11-18yrs (n = 11) [2]: 26.1
- Dominance score Mean all ages [2]: 32.6
- Dominance scores 3-5 yrs [2]: 23
- Dominance scores 6-10 yrs [2]: 47
- Dominance scores 11-18 yrs [2]: 26
- Dominance scores Mean all ages [2]: 33

Substance: PQPELPYPQ [DQ2.5-glia-α2]
- individual CD children with responses [3]: 0/10

Substance: PFPQPELPY [DQ2.5-glia-α1a]
- individual CD children with responses [3]: 3/10

Substance: W13 (LQPFPQPELPYLQP) [Peptide W13]
- Dominance scores 18+ yrs [1]: 4
- Dominance score 3-5yrs (n = 9) [2]: 29.3
- Dominance score 6-10yrs (n = 10) [2]: 32.0
- Dominance score 11-18yrs (n = 11) [2]: 30.1
- Dominance score Mean all ages [2]: 30.7
- Dominance scores 3-5 yrs [2]: 34
- Dominance scores 6-10 yrs [2]: 32
- Dominance scores 11-18 yrs [2]: 30
- Dominance scores Mean all ages [2]: 32

Substance: W05 (QPFPQPEQPFSQQ) [Peptide W05]
- Dominance scores 18+ yrs [1]: 15
- Dominance score 3-5yrs (n = 9) [2]: 23.4
- Dominance score 6-10yrs (n = 10) [2]: 33.3
- Dominance score 11-18yrs (n = 11) [2]: 27.1
- Dominance score Mean all ages [2]: 28.6
- Dominance scores 3-5 yrs [2]: 23
- Dominance scores 6-10 yrs [2]: 33
- Dominance scores 11-18 yrs [2]: 27
- Dominance scores Mean all ages [2]: 28

Substance: W08 (LQPFPQPELPYSQP) [Peptide W08]
- Dominance scores 18+ yrs [1]: 8
- Dominance score 3-5yrs (n = 9) [2]: 42.1
- Dominance score 6-10yrs (n = 10) [2]: 51.7
- Dominance score 11-18yrs (n = 11) [2]: 40.2
- Dominance score Mean all ages [2]: 44.9
- Dominance scores 3-5 yrs [2]: 45
- Dominance scores 6-10 yrs [2]: 52
- Dominance scores 11-18 yrs [2]: 40
- Dominance scores Mean all ages [2]: 45

Substance: W32 (PFPEQPEQPFPQP) [Peptide W32]
- Dominance scores 18+ yrs [1]: 0
- Dominance score 3-5yrs (n = 9) [2]: 26.9
- Dominance score 6-10yrs (n = 10) [2]: 34.4
- Dominance score 11-18yrs (n = 11) [2]: 28.2
- Dominance score Mean all ages [2]: 30.2
- Dominance scores 3-5 yrs [2]: 26
- Dominance scores 6-10 yrs [2]: 34
- Dominance scores 11-18 yrs [2]: 28
- Dominance scores Mean all ages [2]: 30

Substance: LQPFPQPELPFPQP [Peptide W06]
- Dominance scores 18+ yrs [1]: 15
- Dominance score 3-5yrs (n = 9) [2]: 53.1
- Dominance score 6-10yrs (n = 10) [2]: 52.7
- Dominance score 11-18yrs (n = 11) [2]: 53.8
- Dominance score Mean all ages [2]: 53.2
- dominance hierarchy across all age groups ([2]; Example 6): most dominant four peptides
- Dominance scores 3-5 yrs [2]: 58
- Dominance scores 6-10 yrs [2]: 53
- Dominance scores 11-18 yrs [2]: 54
- Dominance scores Mean all ages [2]: 54
- IFN-γ ELISpot response ([2]; patient A, 11-17 yrs, cut-off 10 SFU): 5 SFU
- Significant response as percentage of maximal peptide SFU ([2]; patient D, max peptide 30.5 SFU): ′′′ (41-70% = ′′′)
- IFN-γ ELISpot response ([2]; patient E, H, 11-17 yrs, cut-off 10 SFU): 103 SFU
- Significant response as percentage of maximal peptide SFU ([2]; patient E, max peptide 224 SFU): ′′′ (41-70% = ′′′)
- IFN-γ ELISpot response ([2]; patient F, 11-17 yrs, cut-off 10 SFU): 107 SFU
- Significant response as percentage of maximal peptide SFU ([2]; patient F, max peptide 178 SFU): ′′′′
- IFN-γ ELISpot response ([2]; patient G, 11-17 yrs, cut-off 10 SFU): 7 SFU
- IFN-γ ELISpot response ([2]; patient H (HLA-DQ2.5 homozygote), 3-5yrs, cut-off 10 SFU): 41 SFU
- IFN-γ ELISpot response ([2]; patient H, 11-17 yrs, cut-off 10 SFU): 16 SFU
- Significant response as percentage of maximal peptide SFU ([2]; patient H, max peptide 17 SFU): + (>70% = +)
- IFN-γ ELISpot response ([2]; patient ID not given, 11-17 yrs, cut-off 10 SFU): 59 SFU
- Significant response as percentage of maximal peptide SFU ([2]; patient ID not given, max peptide 95 SFU): ′′′ (41-70% = ′′′)
- Significant response as percentage of maximal peptide SFU ([2]; patient II, max peptide 15 SFU): + (>70% = +)
- Significant response as percentage of maximal peptide SFU ([2]; patient J, max peptide 196 SFU): ′′′ (41-70% = ′′′)
- Significant response as percentage of maximal peptide SFU ([2]; patient K, max peptide 53 SFU): ′′ (21-40% = ′′)
- Significant response as percentage of maximal peptide SFU ([2]; patient M, max peptide 48 SFU): + (>70% = +)
- IFN-γ ELISpot response ([2]; patient N, 3-5yrs, cut-off 10 SFU): 4 SFU
- IFN-γ ELISpot response ([2]; patient P, 11-17 yrs, cut-off 21.6 SFU): 33 SFU
- Significant response as percentage of maximal peptide SFU ([2]; patient P, max peptide 64 SFU): ′′′ (41-70% = ′′′)
- IFN-γ ELISpot response ([2]; patient Q, 11-17 yrs, cut-off 10 SFU): 65 SFU
- Significant response as percentage of maximal peptide SFU ([2]; patient Q, max peptide 97 SFU): ′′′ (41-70% = ′′′)
- IFN-γ ELISpot response ([2]; patient U, H, 11-17 yrs, cut-off 10 SFU): 54 SFU
- Significant response as percentage of maximal peptide SFU ([2]; patient U, max peptide 81 SFU): ′′′′
- IFN-γ ELISpot response ([2]; patient V, 6-10 yrs, cut-off 10 SFU): 22 SFU
- Significant response as percentage of maximal peptide SFU ([2]; patient V, max peptide 35 SFU): ′′′ (41-70% = ′′′)
- IFN-γ ELISpot response ([2]; patient Y, 6-10 yrs, cut-off 10 SFU): 6 SFU
- Significant response as percentage of maximal peptide SFU ([2]; patient Z, max peptide 13 SFU): ′′ (21-40% = ′′)
- IFN-γ ELISpot response ([2]; patient eleven, 6-10 yrs, cut-off 10 SFU): 43 SFU
- Significant response as percentage of maximal peptide SFU ([2]; patient eleven, max peptide 57 SFU): + (>70% = +)
- Significant response as percentage of maximal peptide SFU ([2]; patient five, max peptide 48 SFU): ′′ (21-40% = ′′)
- IFN-γ ELISpot response ([2]; patient seven, 6-10 yrs, cut-off 10.5 SFU): 15 SFU
- Significant response as percentage of maximal peptide SFU ([2]; patient seven, max peptide 27 SFU): ′′′ (41-70% = ′′′)
- IFN-γ ELISpot response ([2]; patient six, 3-5yrs, cut-off 10 SFU): 12 SFU
- Significant response as percentage of maximal peptide SFU ([2]; patient six, max peptide 13 SFU): + (>70% = +)
- IFN-γ ELISpot response ([2]; patient ten, 3-5yrs, cut-off 10 SFU): 10 SFU
- Significant response as percentage of maximal peptide SFU ([2]; patient ten, max peptide 14.5 SFU): + (>70% = +)
- IFN-γ ELISpot response ([2]; patient three, 6-10 yrs, cut-off 10.5 SFU): 112 SFU
- IFN-γ ELISpot response ([2]; patient twelve, 11-17 yrs, cut-off 10 SFU): 13 SFU
- IFN-γ ELISpot response ([2]; patient two, 3-5yrs, cut-off 10 SFU): 26 SFU
- Significant response as percentage of maximal peptide SFU ([2]; patient two, max peptide 60 SFU): ′′′ (41-70% = ′′′)
